The record followed here is patent US20080255243A1, “Stat3 as a theranostic indicator” (priority 2007, published 2008).

The structures appear in SMILES notation.

Assay [1] deals with Rh30 alveolar cells xenograft. Put plainly: Rh30 alveolar rhabdomyosarcoma orthotopic mouse xenograft, tumor growth. It is filed as in vivo. To be noted: SCID-beige mice, 20 mg/kg IP every 3 days for 30 days, vs vehicle, n=8, p=0.0002 (Student's t-test). On the procedure: (§1) 2×10^6 cells in 0.2 mL total volume per mouse, from either Rh30 alveolar or RD embryonal cell lines, were injected orthotopically into the left hind leg gastrocnemius muscle of a SCID beige murine model. After 1 week, mice were assigned to control (n=8) or CCI-779 treatment groups (n=8). […] (FIG. 6C) CCI-779 was administered at 20 mg/kg/IP every 3 days for 30 days. Protein extracts from Rh30 and RD mouse xenograft tumors or uninvolved muscle were treated with CCI-779 or vehicle for 30 days and analyzed by Western blotting for S6 and 4EBP1 phosphorylation. […] 5. In vivo xenograft tumor model. Animal studies were performed in accordance with guidelines of the National Institutes of Health Animal Care and Use Committee. Female 4-6 week old beige-SCID mice were purchased from Charles River Laboratories (Wilmington, Mass.). […] Tumor growth was measured every 3 days with calipers, and tumor volume was calculated by the formula V (mm^3)=a×b^2, where a is the longest tumor axis, and b is the shortest tumor axis. […] Suppression of the mTOR pathway was monitored by measuring the phosphorylation of 4EBP1 and S6 ribosomal protein, which are well-established downstream targets of mTOR.

Assay [2] concerns RD embryonal cells xenograft. The experiment in a line: RD embryonal rhabdomyosarcoma orthotopic mouse xenograft, tumor growth. It counts as in vivo. To be noted: SCID-beige mice, 20 mg/kg IP every 3 days for 30 days, vs vehicle, n=8, p=0.00008 (Student's t-test). On the procedure: as §1
The test system of assay [3] is phosphorylation of 4EBP1 and S6 ribosomal protein (mTOR downstream targets). Put plainly: Western blotting of xenograft tumor and uninvolved muscle extracts for phosphorylation of mTOR downstream targets. It counts as in vivo, mouse. To be noted: for phosphorylation of 4EBP1 and S6 (mTOR downstream targets): 20 mg/kg IP every 3 days for 30 days. On the procedure:
2×10^6 cells in 0.2 mL total volume per mouse, from either Rh30 alveolar or RD embryonal cell lines, were injected orthotopically into the left hind leg gastrocnemius muscle of a SCID beige murine model. After 1 week, mice were assigned to control (n=8) or CCI-779 treatment groups (n=8). […] (FIG. 6C) CCI-779 was administered at 20 mg/kg/IP every 3 days for 30 days. Protein extracts from Rh30 and RD mouse xenograft tumors or uninvolved muscle were treated with CCI-779 or vehicle for 30 days and analyzed by Western blotting for S6 and 4EBP1 phosphorylation. […] 5. In vivo xenograft tumor model. Animal studies were performed in accordance with guidelines of the National Institutes of Health Animal Care and Use Committee. Female 4-6 week old beige-SCID mice were purchased from Charles River Laboratories (Wilmington, Mass.). Two million viable cells harvested from mid confluent cultures of either Rh30 alveolar or RD embryonal cells in 0.2 ml diluent (5% Tween-80, 5% polyethylene glycol-400 (Sigma, St. Louis, Mo.)) were injected orthotopically into the gastrocnemius muscle in the left hind leg, and after 1 week mice were randomly assigned to control (n=8) or CCI-779 treatment groups (n=8). Mice were treated IP every 3 days for 30 consecutive days with 20 mg/kg/IP of CCI-779 (Developmental Therapeutics Program, National Cancer Institute and Wyeth, Madison, N.J.) or vehicle alone. Tumor growth was measured every 3 days with calipers, and tumor volume was calculated by the formula V (mm^3)=a×b^2, where a is the longest tumor axis, and b is the shortest tumor axis. All mice were sacrificed by asphyxiation with CO2 and underwent necropsy for confirmation of tumor growth. Tumors were excised and snap frozen at -80° C. until analysis. […] Suppression of the mTOR pathway was monitored by measuring the phosphorylation of 4EBP1 and S6 ribosomal protein, which are well-established downstream targets of mTOR.

For `CO[C@H]1C[C@@H]2CC[C@@H](C)[C@@](O)(O2)C(=O)C(=O)N2CCCC[C@H]2C(=O)O[C@H]([C@H](C)C[C@@H]2CC[C@@H](OC(=O)C(C)(CO)CO)[C@H](OC)C2)CC(=O)[C@H](C)/C=C(\C)[C@@H](O)[C@@H](OC)C(=O)[C@H](C)C[C@H](C)/C=C/C=C/C=C/1C` [CCI-779, 40-[3-hydroxy(hydroxymethyl)methylpropanoate]-rapamycin], the “tumor growth / tumor volume measured with calipers” value in assay [1] is reported as “profoundly reduced the growth”; in assay [1] (20 mg/kg), “less in the CCI-779 treatment group as compared to the vehicle alone”; in assay [2], “profoundly reduced the growth”; in assay [2] (20 mg/kg), “less in the CCI-779 treatment group as compared to the vehicle alone”. The “phosphorylation of 4EBP1 and S6 (mTOR downstream targets)” value in assay [3] (RD embryonal xenograft derived tumors) and in assay [3] (Rh30 alveolar xenograft derived tumors) was “inhibited the phosphorylation of these downstream targets” in each case. Moreover, in assay [3] (time dependent, non-involved muscle and tumor tissue, compared to actin (FIG. 6A)), the “phosphorylation of mTOR pathway substrates pS6 Ser235/236 and 4EBP1 Thr70” value is recorded as “inhibited phosphorylation of mTOR pathway substrates”.
